This passage reports Activity and pH results from ChEMBL document CHEMBL4619763 (J Nat Prod, 2020).

Series [1] can be described thus: Anti-urolithic activity in synthetic urine assessed as decrease in absorbance at 10 mg/mL after 60 mins relative to control. The arrangement: scale not given: the % may be the effect or the level left. The class given is functional.
Series [2] in a line: Anti-urolithic activity in synthetic urine assessed as reduction in CaOx crystal formation at 10 mg/mL in presence of sodium oxalate after 60 mins by Neubauer counting chamber method relative to control. The class given is functional. The arrangement: scale not given: the % may be the effect or the level left.
The nature of series [3]: Anti-urolithic activity in synthetic urine assessed as decrease in absorbance at 10 mg/mL relative to control. It is filed as functional. Also on record: scale not given: the % may be the effect or the level left.
A short description of series [4]: Anti-urolithic activity in synthetic urine assessed as decrease in absorbance at 10 mg/mL after 30 mins relative to control. The class given is functional. Also on record: scale not given: the % may be the effect or the level left.
For series [5], the system named is Rattus norvegicus. In words: Diuretic activity in normotensive Wistar rat assessed as urine pH at 20 mg/kg, po administered via gavage after 8 hrs (reference value: 6.14 to 6.21). The class given is functional.
For series [6], the system named is Rattus norvegicus. Put plainly: Diuretic activity in normotensive Wistar rat assessed as modification of urinary calcium excretion at 0.1 to 1 mg/kg, po administered via gavage measured up to 8 hrs. The class given is functional, organism-based.
Series [7] concerns Rattus norvegicus. Put plainly: Diuretic activity in normotensive Wistar rat assessed as modification of urinary potassium excretion at 0.1 to 1 mg/kg, po administered via gavage measured up to 8 hrs. The class given is ADME, organism-based. The settings on record: in vivo.
The subject of series [8] is Rattus norvegicus. Put plainly: Diuretic activity in normotensive Wistar rat assessed as increase in urine volume excretion at 0.1 to 1 mg/kg, ip measured up to 8 hrs. The class given is functional, organism-based.
Series [9] deals with Rattus norvegicus. Put plainly: Diuretic activity in normotensive Wistar rat assessed as modification of urinary chloride excretion at 0.1 to 1 mg/kg, po administered via gavage measured up to 8 hrs. It is filed as functional, organism-based.
Series [10] deals with Rattus norvegicus. In words: Diuretic activity in normotensive Wistar rat assessed as modification of urinary sodium excretion at 0.1 to 1 mg/kg, po administered via gavage measured up to 8 hrs. The class given is functional, organism-based.
Series [11] deals with Rattus norvegicus. Put plainly: Diuretic activity in normotensive Wistar rat assessed as increase in urine volume excretion at 0.1 to 1 mg/kg, po administered via gavage measured up to 8 hrs. The class given is functional, organism-based.
Series [12] relates to Rattus norvegicus. In words: Diuretic activity in normotensive Wistar rat assessed as urinary sodium excretion at 3 mg/kg, po administered via gavage after 8 hrs (reference value: 61.82 to 80.81 mmol/L). The class given is functional.
Series [13] concerns Rattus norvegicus. Put plainly: Diuretic activity in normotensive Wistar rat assessed as urine conductivity at 3 mg/kg, po administered via gavage after 8 hrs (reference value: 19.54 +/- 0.98 mS/cm). It is filed as functional.
The subject of series [14] is Rattus norvegicus. In words: Diuretic activity in normotensive Wistar rat assessed as urinary calcium excretion at 3 mg/kg, po administered via gavage after 8 hrs (reference value: 5.93 to 6.87 mg/dl). The class given is functional.
In series [15] the test system is Rattus norvegicus. Put plainly: Diuretic activity in normotensive Wistar rat assessed as urinary chloride excretion at 3 mg/kg, po administered via gavage after 8 hrs (reference value: 135.10 to 143.70 mmol/L). It is filed as functional.
The test system of series [16] is Rattus norvegicus. In words: Diuretic activity in normotensive Wistar rat assessed as urine pH at 3 mg/kg, po administered via gavage after 8 hrs (reference value: 6.14 to 6.21). The class given is functional.
The subject of series [17] is Rattus norvegicus. Put plainly: Diuretic activity in spontaneous hypertensive Wistar rat assessed as decrease in urinary calcium excretion at 10 mg/kg, po administered via gavage for 7 days. It is filed as functional, organism-based.
Series [18] has as its system Rattus norvegicus. Put plainly: In vivo antioxidant activity in Wistar rat model of hypertension-induced oxidative stress assessed as reduction in reactive oxygen species generation in renal tissue at 10 mg/kg, po administered via gavage for 7 days by DCFH-DA probe based fluorimetric assay. It is filed as functional, organism-based.
Series [19] concerns Rattus norvegicus. In words: Diuretic activity in normotensive Wistar rat assessed as urine conductivity at 10 mg/kg, po administered via gavage after 8 hrs (reference value: 19.54 +/- 0.98 mS/cm). The class given is functional.
The subject of series [20] is Rattus norvegicus. In words: Renal protective activity in spontaneous hypertensive Wistar rat assessed as reduction in hypertension-induced glomerular size at 10 mg/kg, po administered via gavage for 7 days by hematoxylin and eosin staining based microscopic analysis. It is filed as functional, organism-based.
In series [21] the test system is Rattus norvegicus. In words: Diuretic activity in spontaneous hypertensive Wistar rat assessed as increase in urinary potassium excretion at 10 mg/kg, po administered via gavage for 7 days. It is filed as ADME, organism-based. The settings on record: in vivo, 168 h.
In series [22] the test system is Rattus norvegicus. Put plainly: Diuretic activity in normotensive Wistar rat assessed as urinary chloride excretion at 10 mg/kg, po administered via gavage after 8 hrs (reference value: 135.10 to 143.70 mmol/L). It is filed as functional.
Series [23] concerns Rattus norvegicus. In words: Diuretic activity in spontaneous hypertensive Wistar rat assessed as increase in urine volume at 10 mg/kg, po administered via gavage for 7 days. The class given is functional, organism-based.
Series [24] relates to Rattus norvegicus. Put plainly: Diuretic activity in normotensive Wistar rat assessed as urinary sodium excretion at 10 mg/kg, po administered via gavage after 8 hrs (reference value: 61.82 to 80.81 mmol/L). The class given is functional.
For series [25], the system named is Rattus norvegicus. In words: Diuretic activity in normotensive Wistar rat assessed as increase in urine volume at 10 mg/kg, po administered via gavage for 7 days. It is filed as functional, organism-based.
The test system of series [26] is Rattus norvegicus. Put plainly: In vivo antioxidant activity in Wistar rat model of hypertension-induced oxidative stress assessed as reduction in nitrite level in renal tissue at 10 mg/kg, po administered via gavage for 7 days by Griess reagent based assay. The class given is functional, organism-based.
The test system of series [27] is Rattus norvegicus. In words: Diuretic activity in spontaneous hypertensive Wistar rat assessed as increase in urinary chloride excretion at 10 mg/kg, po administered via gavage for 7 days. The class given is functional, organism-based.
Series [28] concerns Rattus norvegicus. In words: Renal protective activity in spontaneous hypertensive Wistar rat assessed as reduction in hypertension-induced mesangial space disarrangement at 10 mg/kg, po administered via gavage for 7 days by hematoxylin and eosin staining based microscopic analysis. The class given is functional, organism-based.
Series [29] concerns Rattus norvegicus. Put plainly: Anti-urolithic activity in normotensive Wistar rats assessed as reduction in CaOx crystal formation in cumulative urine at 10 mg/kg, po administered via gavage in presence of sodium oxalate by Neubauer counting chamber method relative to control. It is filed as functional. Also on record: scale not given: the % may be the effect or the level left.

In series [30] the test system is Rattus norvegicus. Put plainly: Renal protective activity in spontaneous hypertensive Wistar rat assessed as reduction in hypertension-induced Bowman's capsule thickening at 10 mg/kg, po administered via gavage for 7 days by hematoxylin and eosin staining based microscopic analysis. It is filed as functional, organism-based.
In series [31] the test system is Rattus norvegicus. Put plainly: Diuretic activity in spontaneous hypertensive Wistar rat assessed as increase in urinary sodium excretion at 10 mg/kg, po administered via gavage for 7 days. The class given is functional, organism-based.
The test system of series [32] is Rattus norvegicus. In words: Diuretic activity in normotensive Wistar rat assessed as increase in urinary sodium excretion at 10 mg/kg, po administered via gavage for 7 days. The class given is functional, organism-based.
Series [33] concerns Rattus norvegicus. In words: Diuretic activity in normotensive Wistar rat assessed as increase in urinary potassium excretion at 10 mg/kg, po administered via gavage for 7 days. The class given is ADME, organism-based. As to conditions: in vivo, 168 h.
Series [34] deals with Rattus norvegicus. Put plainly: Diuretic activity in normotensive Wistar rat assessed as urinary potassium excretion at 10 mg/kg, po administered via gavage after 8 hrs (reference value: 22.39 to 24.21 mmol/L). It is filed as ADME, organism-based. The settings on record: in vivo.
Series [35] relates to Rattus norvegicus. Put plainly: Anti-urolithic activity in spontaneous hypertensive Wistar rats assessed as reduction in CaOx crystal formation in cumulative urine at 10 mg/kg, po administered via gavage in presence of sodium oxalate by Neubauer counting chamber method relative to control. The class given is functional. The arrangement: scale not given: the % may be the effect or the level left.

Series [36] has as its system Rattus norvegicus. Put plainly: Diuretic activity in normotensive Wistar rat assessed as decrease in urinary calcium excretion at 10 mg/kg, po administered via gavage for 7 days. The class given is functional, organism-based.
Series [37] concerns Rattus norvegicus. In words: Diuretic activity in normotensive Wistar rat assessed as urinary calcium excretion at 10 mg/kg, po administered via gavage after 8 hrs (reference value: 5.93 to 6.87 mg/dl). The class given is functional.
Series [38] deals with Rattus norvegicus. In words: Diuretic activity in normotensive Wistar rat assessed as increase in urinary chloride excretion at 10 mg/kg, po administered via gavage for 7 days. It is filed as functional, organism-based.

Each structure is given as a SMILES string. Activity calls are given as the source filed them. The rule behind the calls is not given here.

Consider `O=C([O-])CC(O)(CC(=O)[O-])C(=O)[O-].[K+].[K+].[K+]` [POTASSIUM CITRATE ANHYDROUS], for which the Activity in series [1] is reported as 64.85%; in series [2], 65.02%; in series [3], 81.73%; in series [4], 70.41%.
In the case of `NS(=O)(=O)c1cc(C(=O)O)c(NCc2ccco2)cc1Cl` [FUROSEMIDE], the pH in the series with Rattus norvegicus [5] is given as 6.12.
On to `O=c1c(O)c(-c2ccc(O)cc2)oc2cc(O)cc(O)c12` [KAEMPFEROL], for which the outcome in the series with Rattus norvegicus [6], in the series on Rattus norvegicus [8], in the series on Rattus norvegicus [9], with Rattus norvegicus [10] and with Rattus norvegicus [11] was inactive. Besides, the Activity result in the series on Rattus norvegicus [7] is “Non-Toxic”.
On to `N=C(N)NC(=O)c1nc(Cl)c(N)nc1N` [AMILORIDE], for which the Activity with Rattus norvegicus [12] came to 117.2 mmol/L; in the series with Rattus norvegicus [13], 18.23 mS/cm; in the series with Rattus norvegicus [14], 5.7 mg/dL; with Rattus norvegicus [15], 170.5 mmol/L. In addition, in the series on Rattus norvegicus [16], the pH is recorded as 6.29.
On to `NS(=O)(=O)c1cc2c(cc1Cl)NCNS2(=O)=O` [HYDROCHLOROTHIAZIDE], for which the result in the series with Rattus norvegicus [17], with Rattus norvegicus [18], in the series with Rattus norvegicus [20], with Rattus norvegicus [23], in the series on Rattus norvegicus [25] and with Rattus norvegicus [26] was Active. Moreover, the result in the series with Rattus norvegicus [27], with Rattus norvegicus [28], in the series on Rattus norvegicus [30], in the series with Rattus norvegicus [31], with Rattus norvegicus [32] and in the series with Rattus norvegicus [36] was Active. The outcome in the series with Rattus norvegicus [38] was Active. The Activity with Rattus norvegicus [19] was 23.62 - 27.3 mS/cm; in the series with Rattus norvegicus [21], “Toxic”; in the series with Rattus norvegicus [22], 279.8 to 286.6 mmol/L; with Rattus norvegicus [24], 175.7 to 185.7 mmol/L; with Rattus norvegicus [29], 89.04%; with Rattus norvegicus [33] it was “Toxic”. Further, the values for the Activity with Rattus norvegicus [34], in the series with Rattus norvegicus [35] and in the series on Rattus norvegicus [37] were 41 to 44.8 mmol/L, 92.9% and 4.78 to 5.24 mg/dL, respectively.
